In US20020054941A1, “Methods and compositions to enhance tenderness and value of meat” (The Board of Regents of the University of Nebraska, priority 2000, published 2002):
Marks after values point to notes of the source that are not given here.

How the values were obtained:
[1] = tested on: sternomandibularis beef muscles; assay: pH of pre-rigor injected sectioned muscle; conditions: injection 10% of muscle weight, 200 mM (glucose, calcium chloride 300 mM)
Procedure: Pre-rigor beef muscle was sectioned and the sections were injected at approximately 1 hour post-mortem with a volume of treatment solution equal to 10% of the muscle weight. Objective color measurements were taken on pieces of each muscle section and the pieces were then frozen, powdered and stored at −80° C. for up to 10 days before testing pH and analyzing oxidation-reduction potential. Shear force was evaluated as described immediately above. Solutions used in this procedure were as follows: sodium citrate (200 mM), sodium acetate (200 mM), glucose (300 mM), calcium citrate (200 mM), calcium chloride (300 mM), injection with water, and no injection (control). The calcium citrate solution was prepared as a suspension using 0.25% carrageenan and 200 mM calcium citrate due to its insolubility in water. However, use of calcium citrate can be optimized by increasing solubility by means known in the art.

[2] = tested on: semimembranosus beef muscles; assay: Muscle pH, pre-rigor injection of whole muscle
Procedure: (§1) Experiment were conducted to test the effects of pre-rigor injection of several compounds. Effects of these compounds on pH, color, tenderness and other related traits of low-value beef cuts were investigated. Ten steers (22 to 24 mo of age, 515 to 676 kg live weight) were slaughtered according to current industry procedures. Pre-rigor semimembranosus (from the round), triceps brachii and supraspinatus muscles (from the chuck) were excised, after evisceration (approximately 1 hour post-mortem), from both sides of the carcass. Muscle sections were randomly assigned to the treatments: sodium citrate (NaC; 200 mM), sodium fluoride (NaF; 200 mM), sodium acetate (NaA; 200 mM), and calcium chloride (CaCl2; 300 mM). The control samples remained on the carcass at 2° C. for 24 hours to simulate commercial conditions. Following a cooling, control muscles were removed from each carcass (4 replicates), vacuum packaged and transferred to the holding cooler with the other cuts at 2° C. Calcium chloride treatment was included to be compared with the other treatments.
(§2) At 2 hours post-mortem, each muscle was injected with a volume equal to 8% of the muscle weight using a four-needle hand injector. The temperature of solutions were 4° C. Each muscle was individually treated (2% of solution was added to give a total of 10% of muscle weight) and tumbled in a 75-pound capacity tumbler (Röschermatic, Oshabrück, Germany) for 30 min to insure uniform distribution of the solution.
(§3) Samples of each muscle (approximately 100 g) were taken at 0 hour (before injection), 24, and 72 hours after injection for determination of pH, oxidation-reduction potential, glycogen content, R-values, NAD, and NADH. The samples were then immediately frozen in liquid nitrogen and stored at −80° C. until they were powdered and analyzed. Fresh muscle samples (approximately 20 g) were taken at 72 hours after injection and assayed immediately for water holding capacity and sarcomere length.
(§4) Duplicate pre-rigor samples (5 g) were weighed from powdered sample and homogenized (Polytron, Brinkman Instruments, New York, N.Y.) in 50 mL of 5 mM iodoacetic acid, 150 mM potassium chloride (pH 7.0, 24° C.) to stop glycolysis (Ahn et al., 1992). The pH of the suspension was measured with a general purpose electrode (Corning Glass Works, Corning, N.Y.) attached to an Orion Model SA 720 pH meter (Orion Research, Inc., Boston, Mass.). Post-rigor muscle pH was determined by homogenizing 5 g of sample in 50 mL of deionized water (Winger et al., 1979).

[3] = tested on: triceps brachii beef muscles; assay: Muscle pH, pre-rigor injection of whole muscle; conditions: 200 mM, calcium chloride 300 mM
Procedure: as §1, §2, §3, §4

[4] = tested on: supraspinatus beef muscles; assay: Muscle pH, pre-rigor injection of whole muscle
Procedure: as §1, §2, §3, §4

[5] = 24 h, 200 mM, calcium chloride 300 mM
[6] = 72 h, 200 mM, calcium chloride 300 mM

O=C([O-])CC(O)(CC(=O)[O-])C(=O)[O-].[Na+].[Na+].[Na+] [Sodium citrate, sodium citrate]
PH (0 h) ([1]; 0 h): 6.86 | pH, 72 h ([1]; 72 h): 5.77^bc | pH, 0 h ([2]; 0 h (before injection)): 6.68 | pH, 24 h [2, 5]: 5.97^a | pH, 72 h [2, 6]: 5.78^b | pH, 0 h ([3]; 0 h (before injection)): 6.71 | pH, 24 h ([3]; 24 h after injection): 5.97^a | pH, 72 h ([3]; 72 h after injection): 5.72^b | pH, 0 h ([4]; 0 h (before injection)): 6.73 | pH, 24 h [4, 5]: 6.04^b | pH, 72 h [4, 6]: 5.86^b
